Patent publication US20230219961A1, “Pyridine acetamide derivative serving as CDK inhibitor, and preparation method therefor and use thereof” (Suzhou AlphaMa Biotechnology Co., Ltd., priority 2020, published 2023)

How the values were obtained:
CDK9 = biological target: T1, CDK9 (Homo sapiens, UniProt P50750); test: Inhibitory effect on the kinase activity of CDK9 in vitro (Caliper); format: biochemical; settings: 10 uM ATP, 0.2 ug/uL CTD3 peptide; read-out: CDK 9 IC50
T1 construct: purchased Millipore 14-685 M
Description: (§1) The detection of the inhibitory effect of the compounds of the present disclosure on the kinase activity of CDK7/CDK9 in vitro was determined by the following method:
(§2) 1) The compound was accurately weighed and dissolved in DMSO (Sigma, D2650) to a concentration of 100 mM for later use. The compound was diluted to 5-fold of a desired highest concentration, and diluted 4-fold into 6 concentration gradients, allowing the final concentration of the compound in the reaction system to be CDK7: 3000, 750, 188, 47, 12, 3 nM; CDK9: 100, 25, 6.25, 1.56, 0.39, 0.098 nM. 5 ul was taken to a 384-well plate (Corning, 4512).
(§3) 2) Kinase reaction: 10uL protein kinase (CDK7: Eurofilns,14-476 M; CDK9: Millipore,14-685 M) solution was added to the 384-well plate (Corning, 4512) containing the compound, and allowed to stand at room temperature for 10 min; a mixed solution of ATP(Sigma, A7699) and substrate polypeptide (CDK7: 77 uM ATP&0.2ug/uL CTD3 peptide (GL Biochem,SY356885); CDK9: 10 uM ATP&0.2 ug/uL CTD3 peptide (GL Biochem,SY356885)) was added, and allowed to stand at 28° C. for a short time; and then a stop solution was added to terminate the reaction at 25 uL per well.
(§4) 3) Detection: Data was collected by Caliper.
(§5) 4) Calculation: The IC50 value was calculated by Graphpad prism 5.0 software according to the concentration of the compound and the corresponding signal value.

Mv4-11 cells = test: Inhibition of the proliferation of Mv4-11 cells (CCK8); format: cell-based; settings: Homo sapiens, MV4-11, 48 h
Description: The inhibition effect of the compounds of the present disclosure on the proliferation of Mv4-11 cells (ATCC:CRL-9591™) in vitro was determined by the following method:
1) Cell inoculation: Mv4-11 cells with good growing state in logarithmic growth phase were inoculated into a 96-well plate at 20000 cells per well and 50 uL, and cultured at 37° C. and under 5% CO2 condition for 2-4 h.
2) Administration: The compound was diluted with 1640 medium containing 10% FBS and 1% PS: 0.4 uL of the compound with an initial concentration of 1 mM was placed in a dilution plate, each added with 199.6 uL of the above culture medium, and gradiently diluted 4-fold, so that the final concentration in the added cell was 1000, 250, 62.5, 15.625, 3.91, 0.98, 0.24, 0.06 nM. 50 µL of the medium containing the compound was sequentially added, and it was placed in a 37° C., 5% CO2 cell incubator for 48 hours.
3) Detection: 10uL CCK8 (Dojindo, CK 04) solution was added to each well, incubated in 37° C. 5% CO2 cell incubator for 2 hours, and then the OD450 value was read by Synegry H1(BioTek) multimode microplate reader.
4) Calculation: The IC50 value was calculated using Graphpad prism 5.0 software according to the concentration of the compound and the corresponding signal value.

RNA pol II Ser2 = test: CDK9 signaling pathway in Mv4-11 cells: phosphorylation of RNA pol II Ser2 (SDS-PAGE/blot); format: cell-based; settings: 6 hours, FIG. 1
Description: (§6) The inhibition effect of the compounds of the present disclosure on CDK7/CDK9 protein downstream RNA pol II Ser ⅖ in Mv4-11 cells in vitro was determined by the following method:
(§7) 1) Cell inoculation: Mv4-11 cells with good growing state in logarithmic growth phase were inoculated into a six-well plate with 2^∗10^5 cells/well, and cultured overnight at 37° C. and under 5% CO2 condition.
(§8) 2) Administration: The compound was diluted with 2 mL of 1640 medium containing 10% FBS and 1% PS. […] of the medium containing the compound was added to the overnight cultured cells, and it was placed in a 37° C., 5% CO2 cell incubator for 6 hours.
(§9) 3) Protein extraction and quantification: Cell suspension was collected and centrifuged at 1000 g for 5 min, the cell culturing medium was discarded, and PBS was added for resuspension and centrifugation; it was repeated three times, the residual liquid was sucked dry, 80 uL cell lysate was added per well, it was placed to ice, shaked for 10 min on a shaker and centrifuged at 12000 g for 5 min, and the supernatant, ie, the total protein solution, was collected; the protein concentration was tested by BCA.
(§10) 4) 12% SDS-PAGE electrophoresis was used to detect, after that trarsmembran was carried out at 100 V voltage for 3 h, blocking solution (Beyotime: P0235) was used to block for 15 min, TBST(Sangon Biotech: C520002) was used to wash the membrane three times, and the primary antibody (target protein CST:13499, internal reference Beyotime: AF1186) was incubated at 4° C. overnight; the membrane was washed with TBST three times; the secondary antibody (Beyotime: A0208) was incubated at room temperature for 1 hour; the membrane was washed with TBST three times; ECL (Tanon: 180-501) was used for exposure and coloration.

CDK7 = biological target: T2, CDK7 (Homo sapiens, UniProt P50613); test: Inhibitory effect on the kinase activity of CDK7 in vitro (Caliper); format: biochemical; settings: 77 uM ATP, 0.2 ug/uL CTD3 peptide; read-out: CDK 7 IC50
T2 construct: purchased Eurofilns (sic; Eurofins) 14-476 M
Description: as §1, §2, §3, §4, §5

RNA pol II Ser5 = test: CDK7 signaling pathway in Mv4-11 cells: phosphorylation of RNA pol II Ser5 (SDS-PAGE/blot); format: cell-based; settings: 6 hours, FIG. 1
Description: as §6, §7, §8, §9, §10

T2 sequence (P50613 whole entry): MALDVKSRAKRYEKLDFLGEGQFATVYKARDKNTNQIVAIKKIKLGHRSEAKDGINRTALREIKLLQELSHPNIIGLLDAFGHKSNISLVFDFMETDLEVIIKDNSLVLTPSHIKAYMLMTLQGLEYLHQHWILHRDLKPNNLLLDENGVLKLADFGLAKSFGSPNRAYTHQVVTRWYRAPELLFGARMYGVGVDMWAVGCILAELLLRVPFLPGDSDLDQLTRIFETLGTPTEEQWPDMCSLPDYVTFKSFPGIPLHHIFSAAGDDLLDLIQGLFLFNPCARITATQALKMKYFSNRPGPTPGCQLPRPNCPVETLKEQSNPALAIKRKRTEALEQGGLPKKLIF
T2 sequence (P51946 whole entry partner): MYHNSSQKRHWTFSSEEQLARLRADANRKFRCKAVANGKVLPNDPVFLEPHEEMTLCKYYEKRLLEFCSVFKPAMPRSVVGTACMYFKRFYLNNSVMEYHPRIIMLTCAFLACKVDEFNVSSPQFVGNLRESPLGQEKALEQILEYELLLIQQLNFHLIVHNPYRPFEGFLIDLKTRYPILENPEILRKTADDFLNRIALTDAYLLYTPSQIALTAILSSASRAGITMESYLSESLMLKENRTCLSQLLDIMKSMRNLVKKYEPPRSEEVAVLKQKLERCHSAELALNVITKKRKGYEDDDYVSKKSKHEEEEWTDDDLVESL
T2 sequence (P51948 whole entry partner): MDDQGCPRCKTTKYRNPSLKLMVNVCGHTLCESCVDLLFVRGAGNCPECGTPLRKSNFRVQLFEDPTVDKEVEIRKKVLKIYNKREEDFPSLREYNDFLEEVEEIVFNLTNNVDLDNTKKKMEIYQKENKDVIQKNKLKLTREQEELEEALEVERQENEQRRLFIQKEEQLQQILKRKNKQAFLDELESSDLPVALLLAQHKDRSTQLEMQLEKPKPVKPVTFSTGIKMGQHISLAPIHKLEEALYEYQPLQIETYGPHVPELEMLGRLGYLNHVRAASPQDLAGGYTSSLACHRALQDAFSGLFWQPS
T1 sequence (P50750 whole entry): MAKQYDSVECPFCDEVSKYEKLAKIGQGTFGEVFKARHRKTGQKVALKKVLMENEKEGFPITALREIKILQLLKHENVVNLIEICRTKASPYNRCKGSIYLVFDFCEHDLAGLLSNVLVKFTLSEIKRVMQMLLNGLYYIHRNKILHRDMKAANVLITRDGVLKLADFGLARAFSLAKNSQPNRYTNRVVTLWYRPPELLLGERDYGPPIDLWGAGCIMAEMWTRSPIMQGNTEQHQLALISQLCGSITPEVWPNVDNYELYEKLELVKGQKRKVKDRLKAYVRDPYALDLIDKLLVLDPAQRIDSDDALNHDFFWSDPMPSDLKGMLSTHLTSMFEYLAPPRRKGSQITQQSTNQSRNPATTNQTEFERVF
T1 sequence (O60563 whole entry partner): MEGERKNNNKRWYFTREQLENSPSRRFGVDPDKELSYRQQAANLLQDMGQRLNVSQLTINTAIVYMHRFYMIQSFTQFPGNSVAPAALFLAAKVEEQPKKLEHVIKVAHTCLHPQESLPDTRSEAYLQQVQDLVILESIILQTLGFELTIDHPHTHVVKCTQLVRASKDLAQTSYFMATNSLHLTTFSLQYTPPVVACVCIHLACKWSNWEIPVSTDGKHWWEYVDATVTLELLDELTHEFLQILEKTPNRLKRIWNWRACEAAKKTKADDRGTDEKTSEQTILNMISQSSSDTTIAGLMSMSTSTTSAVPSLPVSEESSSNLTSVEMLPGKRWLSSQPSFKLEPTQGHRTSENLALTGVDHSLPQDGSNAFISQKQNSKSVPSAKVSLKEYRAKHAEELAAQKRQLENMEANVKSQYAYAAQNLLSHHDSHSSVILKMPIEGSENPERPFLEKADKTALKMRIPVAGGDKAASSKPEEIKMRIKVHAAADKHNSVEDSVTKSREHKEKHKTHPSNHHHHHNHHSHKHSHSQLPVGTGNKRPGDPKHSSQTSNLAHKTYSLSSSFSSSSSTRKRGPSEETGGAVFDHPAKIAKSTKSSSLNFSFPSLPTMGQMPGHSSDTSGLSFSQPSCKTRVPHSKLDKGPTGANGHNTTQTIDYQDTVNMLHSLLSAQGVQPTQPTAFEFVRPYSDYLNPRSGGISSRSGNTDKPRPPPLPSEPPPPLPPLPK

Row | IC50 (CDK9) | IC50 (Mv4-11 cells) | IC50 (CDK7) | SMILES | inhibitory effect on the phosphorylation of CDK9 protein downstream RNA pol II Ser2 (RNA pol II Ser2) | inhibitory effect on the phosphorylation of the CDK7 protein downstream RNA pol II Ser5 (RNA pol II Ser5)
1 | 44.4 nM | 148 nM | – | C[C@H](C(=O)Nc1cc(-c2cnn3c2CC(C)(C)C3)c(Cl)cn1)c1cccc(C#N)n1 [Compound 13-1, (S)-N-(5-chloro-4-(5,5-dimethyl-5,6-dihydro-4H-pyrrolo[1,2-b]pyrazol-3-yl)pyridin-2-yl)-2-(6-cyanopyridin-2-yl)propionamide (assumed)] | significant inhibitory effect | –
2 | 4 nM | 3.9 nM | 103 nM | CNC(=O)c1cccc(CC(=O)Nc2cc(-c3cnn4c3CC(C)(C)C4)c(Cl)cn2)c1 [Compound 3, 3-(2-((5-chloro-4-(5,5-dimethyl-5,6-dihydro-4H-pyrrolo[1,2-b]pyrazol-3-yl)pyridin-2-yl)amino)-2-oxoethyl)-N-methylbenzamide] | – | significant inhibitory effect
3 | 2.9 nM | 13 nM | – | C[C@@H](C(=O)Nc1cc(-c2cnn3c2CC(C)(C)C3)c(Cl)cn1)c1cccnc1 [Compound 11-2, (R)-N-(5-chloro-4-(5,5-dimethyl-5,6-dihydro-4H-pyrrolo[1,2-b]pyrazol-3-yl)pyridin-2-yl)-2-(pyridin-3-yl)propionamide (assumed)] | significant inhibitory effect | significant inhibitory effect
4 | 3 nM | 4.8 nM | 328 nM | C[C@@H](C(=O)Nc1cc(-c2cnn3c2CC(C)(C)C3)c(Cl)cn1)c1cccc(C#N)n1 [Compound 13-2, (R)-N-(5-chloro-4-(5,5-dimethyl-5,6-dihydro-4H-pyrrolo[1,2-b]pyrazol-3-yl)pyridin-2-yl)-2-(6-cyanopyridin-2-yl)propionamide (assumed)] | – | significant inhibitory effect
5 | 2.7 nM | 1.6 nM | 19 nM | C[C@@H](C(=O)Nc1cc(-c2cnn3c2CC(C)(C)C3)c(Cl)cn1)c1cccc(C(N)=O)c1 [Compound 2-2, (R)-3-(1-((5-chloro-4-(5,5-dimethyl-5,6-di hydro-4H-pyrrolo[1,2-b]pyrazol-3-yl)pyridin-2-yl)amino)-1-oxopropan-2-yl)benzamide (assumed)] | significant inhibitory effect | significant inhibitory effect
